Measured values from patent US10519107B2, “Sulfonamide compounds and their use as STAT5 inhibitors” (Governing Council of the University of Toronto, priority 2014, dated 2019).

Legend:
[1] = biological target: wildtype STAT3 protein (Homo sapiens, UniProt P40763); assay: Fluorescence polarization competitive binding, STAT3; conditions: FP; converted from IC50 with Equation 1
Method: Binding of compounds of the disclosure to the STAT5b SH2 domain was assessed using fluorescence polarization assays similar to those previously reported.^15 Analogous assays were also performed with STAT3 protein to determine the specificity of the compounds (13a-d). Fluorescence assays were performed in flat black 384-well plates (Corning) and fluorescence polarization measurements were taken with the Infinite M1000 machine (Tecan, Crailsheim, Germany). The buffer conditions for all assays were 20 mM HEPES, 50 mM NaCl, 1 mM EDTA, 2 mM dithiothreitol, pH 7.5 and the final DMSO concentration in the wells was kept constant at 10%.
Calibration curves for the wildtype STAT3 and STAT5b proteins were derived by incubating a 10 nM final concentration of fluoresceinated-phosphopeptide (5-FAM-pYLPQTC (SEQ ID NO:1) and 5-FAM-GpYLVLDKW (SEQ ID NO:2) for STAT3 and STAT5B, respectively), which are known to bind the SH2 domains, with increasing concentrations of protein (as shown in FIG. 3). The point at which 80% of the fluoresceinated-phosphopeptide was bound was used as the optimal protein concentration required for the competitive fluorescent polarization assays.
For the STAT5b fluorescence polarization assays, the 5-FAM-GpYLVLDKW (SEQ ID NO:2) peptide and STAT5b protein were first incubated for 30 minutes at room temperature. Compounds were titrated at concentrations ranging from 1->60,000 nM and incubated for a further 15 minutes at which point fluorescence polarization measurements were taken in triplicate. The final well concentrations of the fluoresceinated-phosphopeptide and STAT5B were 10 nM and 250 nM, respectively. The same protocol was used for the analogous STAT3 FP assays, except that the 5-FAM-pYLPQTC (SEQ ID NO:1) peptide was used as a probe and the final STAT3 concentration was 150 nM in each well.
The resulting fluorescence polarization measurements were normalized and plotted against compound concentration on a logarithmic scale. The raw data was fitted with a standard dose-normalized response inhibition curve using GraphPad Prism 6 software. The IC50 values were converted to Ki values using Equation 1, which corrects for protein concentration and is a more accurate determination of inhibitory constants in a fluorescence polarization assay than the Cheng-Pruskoff equation.^15 All inhibitory constants and calculated Ki values are summarized in Table 1.
(§1) Modified Cheng-Pruskoff equation containing a correction factor for protein concentration.

[2] = biological target: T1, wildtype STAT5B protein (SH2 domain) (Homo sapiens, UniProt P51692); assay: Fluorescence polarization competitive binding, STAT5b; conditions: FP; for IC50: 5-FAM-GpYLVLDKW 10 nM, STAT5B 250 nM; for Ki: converted from IC50 with Equation 1
T1 sequence (P51692 1-787): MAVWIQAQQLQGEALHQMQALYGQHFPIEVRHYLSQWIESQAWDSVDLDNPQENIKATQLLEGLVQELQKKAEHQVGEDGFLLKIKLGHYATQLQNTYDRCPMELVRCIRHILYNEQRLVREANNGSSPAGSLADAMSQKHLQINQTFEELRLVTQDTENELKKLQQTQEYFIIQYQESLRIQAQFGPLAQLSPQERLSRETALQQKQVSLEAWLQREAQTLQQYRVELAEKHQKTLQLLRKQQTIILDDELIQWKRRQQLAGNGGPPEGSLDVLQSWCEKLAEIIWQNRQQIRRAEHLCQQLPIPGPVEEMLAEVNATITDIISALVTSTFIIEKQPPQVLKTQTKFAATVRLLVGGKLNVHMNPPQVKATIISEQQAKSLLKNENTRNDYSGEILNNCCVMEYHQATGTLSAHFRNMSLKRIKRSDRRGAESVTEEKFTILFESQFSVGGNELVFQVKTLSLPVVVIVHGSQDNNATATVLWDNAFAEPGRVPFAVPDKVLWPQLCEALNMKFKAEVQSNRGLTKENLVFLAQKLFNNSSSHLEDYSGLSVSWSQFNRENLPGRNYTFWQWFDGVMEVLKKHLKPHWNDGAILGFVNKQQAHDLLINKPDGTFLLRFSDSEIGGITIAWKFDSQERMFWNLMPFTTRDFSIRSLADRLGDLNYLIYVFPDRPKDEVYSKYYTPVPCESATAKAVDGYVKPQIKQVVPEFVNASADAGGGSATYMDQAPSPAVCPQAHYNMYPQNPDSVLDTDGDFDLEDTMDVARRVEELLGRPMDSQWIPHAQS
Method: Fluorescence assays were performed in flat black 384-well plates (Corning) and fluorescence polarization measurements were taken with the Infinite M1000 machine (Tecan, Crailsheim, Germany). The buffer conditions for all assays were 20 mM HEPES, 50 mM NaCl, 1 mM EDTA, 2 mM dithiothreitol, pH 7.5 and the final DMSO concentration in the wells was kept constant at 10%.
The point at which 80% of the fluoresceinated-phosphopeptide was bound was used as the optimal protein concentration required for the competitive fluorescent polarization assays.
Compounds were titrated at concentrations ranging from 1->60,000 nM and incubated for a further 15 minutes at which point fluorescence polarization measurements were taken in triplicate. The final well concentrations of the fluoresceinated-phosphopeptide and STAT5B were 10 nM and 250 nM, respectively.
The resulting fluorescence polarization measurements were normalized and plotted against compound concentration on a logarithmic scale. The raw data was fitted with a standard dose-normalized response inhibition curve using GraphPad Prism 6 software.
as §1

Sequence of wildtype STAT3 protein (P40763 whole entry, species assumed, the tested form may be a part): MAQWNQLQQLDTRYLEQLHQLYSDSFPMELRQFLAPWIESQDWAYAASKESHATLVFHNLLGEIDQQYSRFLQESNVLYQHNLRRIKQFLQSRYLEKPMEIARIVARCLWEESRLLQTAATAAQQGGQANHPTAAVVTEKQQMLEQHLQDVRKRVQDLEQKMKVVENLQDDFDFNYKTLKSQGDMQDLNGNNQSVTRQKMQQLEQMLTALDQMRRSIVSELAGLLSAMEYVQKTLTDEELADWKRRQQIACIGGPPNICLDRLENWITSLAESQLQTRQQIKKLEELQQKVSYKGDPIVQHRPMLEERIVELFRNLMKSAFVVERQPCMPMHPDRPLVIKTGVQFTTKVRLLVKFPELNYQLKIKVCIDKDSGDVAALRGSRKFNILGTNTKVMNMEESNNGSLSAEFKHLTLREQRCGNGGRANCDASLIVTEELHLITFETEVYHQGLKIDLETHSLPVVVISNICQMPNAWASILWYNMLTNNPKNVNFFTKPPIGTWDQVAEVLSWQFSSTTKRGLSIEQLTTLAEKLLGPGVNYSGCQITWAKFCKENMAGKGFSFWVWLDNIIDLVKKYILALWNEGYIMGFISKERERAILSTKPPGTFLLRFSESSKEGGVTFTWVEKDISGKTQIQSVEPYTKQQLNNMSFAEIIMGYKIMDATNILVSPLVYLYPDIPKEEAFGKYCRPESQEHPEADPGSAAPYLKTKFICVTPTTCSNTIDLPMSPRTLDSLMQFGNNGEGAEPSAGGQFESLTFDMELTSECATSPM

Question: Which results are given for `O=C(O)c1ccc(N(Cc2ccc3ccccc3c2)C(=O)CN(Cc2ccc(Cl)cc2)S(=O)(=O)c2c(F)c(F)c(F)c(F)c2F)cc1O` [Compound 13d, 4-(2-((N-(4-chlorobenzyl)-2,3,4,5,6-pentafluorophenyl)sulfonamido)-N-(-naphthalene-2-ylmethyl)acetamido)-2-hydroxybenzoic Acid]?
Answer: Ki [1]: > 60 µM; IC50 [2]: 3.95 µM; Ki [2]: 1.56 µM

Question: With `Cc1cc(C)c(S(=O)(=O)N(CC(=O)N(Cc2cc(C(C)(C)C)cc(C(C)(C)C)c2)c2ccc(C(=O)O)c(O)c2)Cc2ccc(Cl)cc2)c(C)c1` [Compound 13b, 4-(2-((N-(4-chlorobenzyl)-2,4,6-trimethylphenyl)sulfonamido)-N-(3,5-di-tert-butylbenzyl)acetamido)-2-hydroxybenzoic Acid] as the compound, how does the Ki [1] read?
Answer: The Ki was over 60 µM.

Question: And the IC50 [2]?
Answer: The IC50 was 6.53 µM.

Question: And the Ki [2]?
Answer: Its Ki is 2.57 µM.

Question: How did the Ki [2] turn out when `O=c1ccoc2ccccc12` [Chromone, reference compound] was run?
Answer: The Ki was over 60 µM.

Question: What does the source list for `Cc1cc(C)c(S(=O)(=O)N(CC(=O)N(Cc2ccc3ccccc3c2)c2ccc(C(=O)O)c(O)c2)Cc2ccc(Cl)cc2)c(C)c1` [Compound 13c, 4-(2-((N-(4-chlorobenzyl)-2,4,6-trimethylphenyl)sulfonamido)-N-(naphthalene-2-ylmethyl)acetamido)-2-hydroxybenzoic Acid]?
Answer: Ki [1]: > 60 µM; IC50 [2]: 8.2 µM; Ki [2]: 3.24 µM
